Target: Hydroxycarboxylic acid receptor 2 (Homo sapiens) (UniProt Q8TDS4)
Test: Displacement of [3H]nicotinic acid from human GPR109a receptor expressed in human HEK293T cells at 10 uM by liquid scintillation counting
Format: cell-based
Conditions: HEK-293T

Sequence of Hydroxycarboxylic acid receptor 2 (Homo sapiens) (Q8TDS4 whole entry): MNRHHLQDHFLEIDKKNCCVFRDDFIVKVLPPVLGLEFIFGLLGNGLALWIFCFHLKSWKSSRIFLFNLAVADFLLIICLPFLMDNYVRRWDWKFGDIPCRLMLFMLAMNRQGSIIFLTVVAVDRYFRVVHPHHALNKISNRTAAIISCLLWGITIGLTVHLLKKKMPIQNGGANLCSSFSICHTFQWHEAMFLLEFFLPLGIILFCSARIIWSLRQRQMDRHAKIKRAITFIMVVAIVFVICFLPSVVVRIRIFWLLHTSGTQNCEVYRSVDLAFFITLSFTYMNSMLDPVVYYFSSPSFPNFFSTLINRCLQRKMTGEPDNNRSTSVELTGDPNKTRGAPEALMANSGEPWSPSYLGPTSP

Row | SMILES | Activity [%]
1 | COc1cc(/C=C/C(=O)O)ccc1O | 0
2 | O=C(O)/C=C/C(=O)O | 10
